Source: ChEMBL document CHEMBL1250512, “Bile acid toxicity structure-activity relationships: correlations between cell viability and lipophilicity in a panel of new and known bile acids using an oesophageal cell line (HET-1A)” (Bioorg Med Chem, 2010)

What was measured:
[1] = Cytotoxicity against human HET-1A cells assessed as cell viability at >1 mM after 24 hrs by MTT assay; format: cell-based
[2] = Cytotoxicity against human HET-1A cells assessed as cell viability after 24 hrs by MTT assay; format: cell-based
[3] = Cytotoxicity against human HET-1A cells assessed as cell viability at 500 uM after 24 hrs by MTT assay relative to control; format: cell-based
[4] = Cytotoxicity against human HuH7 cells assessed as cell viability at 500 uM after 24 hrs by MTT assay relative to control; format: cell-based, Huh-7

| SMILES | Activity [1] | CC50 at 24 h [2] | viability at 24 h, 500 µM [3] | viability at 24 h, 500 µM [4] |
| --- | --- | --- | --- | --- |
| C[C@H](CCC(=O)NCC(=O)O)[C@H]1CC[C@H]2[C@@H]3[C@H](O)C[C@@H]4C[C@H](O)CC[C@]4(C)[C@H]3CC[C@]12C [GLYCOCHENODEOXYCHOLATE] | Toxic | 729 µM | 130% | 105% |
| C[C@H](CCC(=O)NCC(=O)O)[C@H]1CC[C@H]2[C@@H]3[C@H](O)C[C@@H]4C[C@H](O)CC[C@]4(C)[C@H]3C[C@H](O)[C@]12C [GLYCOCHOLIC ACID] |  |  | 105% | 87.7% |
| C[C@H](CCC(=O)O)[C@H]1CC[C@H]2[C@@H]3[C@@H](O)C[C@@H]4C[C@H](N=[N+]=[N-])CC[C@]4(C)[C@H]3CC[C@]12C |  | 45 µM | 36.8% | 26.6% |
| C[C@H](CCC#N)[C@H]1CC[C@H]2[C@@H]3[C@@H](O)C[C@@H]4C[C@H](O)CC[C@]4(C)[C@H]3CC[C@]12C |  |  | 94% | 85.2% |
| C[C@H](CCC(=O)O)[C@H]1CC[C@H]2[C@@H]3[C@@H](O)C[C@@H]4C[C@H](O)CC[C@]4(C)[C@H]3CC[C@]12C [URSODIOL] |  | 1310 µM | 78.8% | 74% |
| C[C@H](C#N)[C@H]1CC[C@H]2[C@@H]3[C@@H](O)C[C@@H]4C[C@H](O)CC[C@]4(C)[C@H]3CC[C@]12C |  |  | 80.5% | 87.3% |
| C[C@H](CCC(=O)O)[C@H]1CC[C@H]2[C@@H]3CC[C@@H]4C[C@H](O)CC[C@]4(C)[C@H]3C[C@H](O)[C@]12C [DEOXYCHOLIC ACID] |  | 257 µM | 41.2% | 57% |
| C[C@H](CCC(=O)O)[C@H]1CC[C@H]2[C@@H]3C(=O)C[C@@H]4CC(=O)CC[C@]4(C)[C@H]3CC[C@]12C |  |  | 93.5% | 54.6% |
| C[C@H](CCC(=O)O)[C@H]1CC[C@H]2[C@@H]3CC[C@@H]4C[C@@H](N=[N+]=[N-])CC[C@]4(C)[C@H]3C[C@H](O)[C@]12C |  | 97 µM | 35.4% | 108% |
| C[C@H](CCC(=O)O)[C@H]1CC[C@H]2[C@@H]3[C@@H](O)C[C@@H]4C[C@H](O)CC[C@]4(C)[C@H]3C[C@H](O)[C@]12C |  |  | 80.8% | 82.3% |
| C[C@H](CCC(N)=O)[C@H]1CC[C@H]2[C@@H]3CC[C@@H]4C[C@H](O)CC[C@]4(C)[C@H]3C[C@H](O)[C@]12C |  | 39 µM | 38.6% | 25.2% |
| C[C@H](CCC(=O)O)[C@H]1CC[C@H]2[C@@H]3[C@@H](O)C[C@@H]4C[C@@H](N=[N+]=[N-])CC[C@]4(C)[C@H]3CC[C@]12C |  | 37 µM | 30.3% | 101% |
| C[C@H](CCC(=O)O)[C@H]1CC[C@H]2[C@@H]3[C@H](O)C[C@@H]4C[C@H](O)CC[C@]4(C)[C@H]3CC[C@]12C [CHENODIOL] |  | 216 µM | 42.2% | 72.3% |
| C[C@H](CCC(=O)O)[C@H]1CC[C@H]2[C@@H]3C(=O)C[C@@H]4C[C@H](O)CC[C@]4(C)[C@H]3CC[C@]12C |  |  | 76.9% | 75.6% |
| C[C@H](CCC(=O)O)[C@H]1CC[C@H]2[C@@H]3C(=O)C[C@@H]4CC(=O)CC[C@]4(C)[C@H]3CC(=O)[C@]12C [DEHYDROCHOLIC ACID] |  |  | 111% | 54.4% |
| C[C@H](CCC(=O)O)[C@H]1CC[C@H]2[C@@H]3CC[C@@H]4C[C@H](N=[N+]=[N-])CC[C@]4(C)[C@H]3C[C@H](O)[C@]12C |  | 71 µM | 30.7% | 37.1% |

| SMILES | Activity [1] | CC50 at 24 h [2] | viability at 24 h, 500 µM [3] | viability at 24 h, 500 µM [4] |
| --- | --- | --- | --- | --- |
| C[C@H](CCCO)[C@H]1CC[C@H]2[C@@H]3[C@@H](O)C[C@@H]4C[C@H](O)CC[C@]4(C)[C@H]3CC[C@]12C |  |  | 97.5% | 44.5% |
| C[C@H](CCC(=O)NCC(=O)O)[C@H]1CC[C@H]2[C@@H]3CC[C@@H]4C[C@H](O)CC[C@]4(C)[C@H]3C[C@H](O)[C@]12C [GLYCODEOXYCHOLATE] | Toxic | 1240 µM | 111% | 105% |
| C[C@H](CCC(=O)O)[C@H]1CC[C@H]2[C@@H]3C[C@H](O)[C@@H]4C[C@H](O)CC[C@]4(C)[C@H]3CC[C@]12C [HYODEOXYCHOLIC_ACID] |  |  | 88.2% | 73.8% |
| C[C@H](CCC(=O)NCC(=O)O)[C@H]1CC[C@H]2[C@@H]3[C@@H](O)C[C@@H]4C[C@H](O)CC[C@]4(C)[C@H]3CC[C@]12C [GLYCOURSODEOXYCHOLIC ACID] |  |  | 109% | 104% |
| C[C@H](CCC(=O)O)[C@H]1CC[C@H]2[C@@H]3CC[C@@H]4C[C@H](O)CC[C@]4(C)[C@H]3CC[C@]12C [LITHOCHOLIC ACID] |  | 25 µM | 41.7% | 63.7% |
| C[C@H](CCC(=O)O)[C@H]1CC[C@H]2[C@@H]3[C@H](O)C[C@@H]4C[C@H](O)CC[C@]4(C)[C@H]3C[C@H](O)[C@]12C [CHOLIC ACID] |  | 1080 µM | 102% | 90.8% |
| COC(=O)CC[C@@H](C)[C@H]1CC[C@H]2[C@@H]3[C@@H](O)C[C@@H]4C[C@H](O)CC[C@]4(C)[C@H]3CC[C@]12C |  |  | 94.3% | 81.2% |
| C[C@H](CCCN=[N+]=[N-])[C@H]1CC[C@H]2[C@@H]3[C@@H](O)C[C@@H]4C[C@H](O)CC[C@]4(C)[C@H]3CC[C@]12C |  | 688 µM | 75.9% | 45.1% |
| COC(=O)CC[C@@H](C)[C@H]1CC[C@H]2[C@@H]3CC[C@@H]4C[C@H](O)CC[C@]4(C)[C@H]3C[C@H](O)[C@]12C [METHYL DEOXYCHOLATE] |  | 46 µM | 28.1% | 48.8% |
| C[C@H](CC(=O)O)[C@H]1CC[C@H]2[C@@H]3[C@@H](O)C[C@@H]4C[C@H](O)CC[C@]4(C)[C@H]3CC[C@]12C [NORUCHOLIC ACID] |  |  | 88.8% | 71.8% |
| C[C@H](CCC(=O)O)[C@H]1CC[C@H]2[C@@H]3[C@@H](O)C[C@@H]4CCCC[C@]4(C)[C@H]3CC[C@]12C |  | 30 µM | 39.9% | 23.7% |
| C[C@H](CCC(=O)O)[C@H]1CC[C@H]2[C@@H]3CC[C@@H]4C[C@H](O)CC[C@]4(C)[C@H]3C[C@@H](O)[C@]12C [LAGODEOXYCHOLATE] |  | 389 µM | 59% | 89% |
| C[C@H](CCC(=O)O)[C@H]1CC[C@H]2[C@@H]3[C@@H](N=[N+]=[N-])C[C@@H]4C[C@H](O)CC[C@]4(C)[C@H]3CC[C@]12C |  | 99 µM | 29% | 64.1% |
| C[C@H](CCC(=O)O)[C@H]1CC[C@H]2[C@@H]3CC[C@@H]4C[C@H](O)CC[C@]4(C)[C@H]3CC(=O)[C@]12C |  |  | 81.8% | 80.6% |
| CC(=O)O[C@@H]1CC[C@@]2(C)[C@H](CC(=O)[C@@H]3[C@@H]2CC[C@]2(C)[C@@H]([C@H](C)CCC(=O)O)CC[C@@H]32)C1 |  | 366 µM | 47.2% | 77.7% |
| C[C@H](C(=O)O)[C@H]1CC[C@H]2[C@@H]3[C@@H](O)C[C@@H]4C[C@H](O)CC[C@]4(C)[C@H]3CC[C@]12C |  | 799 µM | 80.5% | 74.8% |
